According to patent US10800772B2 (Gilead Sciences, Inc., priority 2016, dated 2020):
Like-named read-outs stand apart in the source and are kept apart here.

Experiments:
Assay type in all cases: cell-based, HIV-1
[1] = tested on: HIV-IIIb IN T174I DE; test: Antiviral assay in MT4 cells, HIV-IIIb IN T174I DE virus (from dose escalation passaging); settings: Human immunodeficiency virus 1, IIIB, MT4, 120 h, read-out: T174I DE EC50, MT4 cells, HIV-IIIb IN T174I DE (dose escalation), 5 days, CellTiter-Glo
In short: (§1)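 Each EC50 is the compound concentration that reduced CellTiter-Glo luminescence by 50% after 5 days of culture of HIV-IIIb-infected MT4 cells. Infection was at 0.004 m.o.i. with 3 h pre-incubation. Testing used 10 concentrations in quadruplicate.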

[2] = tested on: HIV-IIIb (wildtype); test: Antiviral assay in MT4 cells, HIV-IIIb wildtype; settings: read-out: WT EC50
In short: as §1

[3] = tested on: HIV-IIIb IN T174I BT; test: Antiviral assay in MT4 cells, HIV-IIIb IN T174I BT virus (from viral breakthrough); settings: Human immunodeficiency virus 1, IIIB, MT4, 120 h, read-out: T174I BT EC50, MT4 cells, HIV-IIIb IN T174I BT (viral breakthrough), 5 days, CellTiter-Glo
In short: as §1

[4] = Human immunodeficiency virus 1, IIIB, MT4, 120 h

Row | Compound | EC50 [1] | EC50 [2, 4] | EC50 [3] | EC50 ([2]; Human immunodeficiency virus 1, 120 h, MT4 cells, HIV-IIIb wildtype, 5 days, CellTiter-Glo)
1 | CCN1CCN(c2nn(C)c3ccc(-c4nc5cc(C)c([C@H](OC(C)(C)C)C(=O)O)c(-c6ccc(Cl)cc6)c5s4)cc23)C(=O)C1 [Compound 86, (S)-2-(tert-butoxy)-2-(7-(4-chlorophenyl)-2-(3-(4-ethyl-2-oxopiperazin-1-yl)-1-methyl-1H-indazol-5-yl)-5-methylbenzo[d]thiazol-6-yl)acetic acid] | 2 µM | 0.015 µM | 2.33 µM | –
2 | Cc1cc2nc(-c3ccc4c(c3)c(N3CC(N5CCOCC5)C3)nn4C)sc2c(-c2ccc(Cl)cc2)c1[C@H](OC(C)(C)C)C(=O)O [Compound 88, (S)-2-(tert-butoxy)-2-(7-(4-chlorophenyl)-5-methyl-2-(1-methyl-3-(3-morpholinoazetidin-1-yl)-1H-indazol-5-yl)benzo[d]thiazol-6-yl)acetic acid] | 1.7 µM | 0.01 µM | 1.24 µM | –
3 | Cc1cc2nc(-c3ccc4c(c3)c(N3CC5(CN(C)C5)C3)nn4C)sc2c(-c2ccc(Cl)cc2)c1[C@H](OC(C)(C)C)C(=O)O [Compound 89, (S)-2-(tert-butoxy)-2-(7-(4-chlorophenyl)-5-methyl-2-(1-methyl-3-(6-methyl-2,6-diazaspiro[3.3]heptan-2-yl)-1H-indazol-5-yl)benzo[d]thiazol-6-yl)acetic acid] | 57 µM | 0.107 µM | 57 µM | –
4 | Cc1cc2nc(-c3ccc4c(c3)c(N3CC(N(C)C)C3)nn4C)sc2c(-c2ccc(Cl)cc2)c1[C@H](OC(C)(C)C)C(=O)O [Compound 90, (S)-2-(tert-butoxy)-2-(7-(4-chlorophenyl)-2-(3-(3-(dimethylamino)azetidin-1-yl)-1-methyl-1H-indazol-5-yl)-5-methylbenzo[d]thiazol-6-yl)acetic Acid] | 1.35 µM | 0.008 µM | 1.18 µM | –
5 | Cc1cc2nc(-c3ccc4c(c3)c(N3CC5(COC5)C3)nn4C)sc2c(-c2ccc(Cl)cc2)c1[C@H](OC(C)(C)C)C(=O)O [Compound 91, (S)-2-(tert-butoxy)-2-(7-(4-chlorophenyl)-5-methyl-2-(1-methyl-3-(2-oxa-6-azaspiro[3.3]heptan-6-yl)-1H-indazol-5-yl)benzo[d]thiazol-6-yl)acetic acid] | 2.44 µM | 0.011 µM | 1.72 µM | –
6 | Cc1cc2nc(-c3ccc4c(c3)c(N3CC[C@H](N(C)C)C3)nn4C)sc2c(-c2ccc(Cl)cc2)c1[C@H](OC(C)(C)C)C(=O)O [Compound 93, (S)-2-(tert-butoxy)-2-(7-(4-chlorophenyl)-2-(3-((S)-3-(dimethylamino)pyrrolidin-1-yl)-1-methyl-1H-indazol-5-yl)-5-methylbenzo[d]thiazol-6-yl)acetic acid] | 3.45 µM | 0.013 µM | 1.01 µM | –
7 | CN[C@H]1CCN(c2nn(C)c3ccc(-c4nc5cc(C)c([C@H](OC(C)(C)C)C(=O)O)c(-c6ccc(Cl)cc6)c5s4)cc23)C1 [Compound 94, (S)-2-(tert-butoxy)-2-(7-(4-chlorophenyl)-5-methyl-2-(1-methyl-3-((S)-3-(methylamino)pyrrolidin-1-yl)-1H-indazol-5-yl)benzo[d]thiazol-6-yl)acetic acid] | 2.52 µM | 0.038 µM | 2.72 µM | –
8 | CN[C@@H]1CCN(c2nn(C)c3ccc(-c4nc5cc(C)c([C@H](OC(C)(C)C)C(=O)O)c(-c6ccc(Cl)cc6)c5s4)cc23)C1 [Compound 95, (S)-2-(tert-butoxy)-2-(7-(4-chlorophenyl)-5-methyl-2-(1-methyl-3-((R)-3-(methylamino)pyrrolidin-1-yl)-1H-indazol-5-yl)benzo[d]thiazol-6-yl)acetic acid] | 11.5 µM | 0.041 µM | 1.75 µM | –
9 | Cc1cc2nc(-c3ccc4c(c3)c(N3CC5(CCCCC5)C3)nn4C)sc2c(-c2ccc(Cl)cc2)c1[C@H](OC(C)(C)C)C(=O)O [Compound 97, (S)-2-(tert-butoxy)-2-(7-(4-chlorophenyl)-5-methyl-2-(1-methyl-3-(2-azaspiro[3.5]nonan-2-yl)-1H-indazol-5-yl)benzo[d]thiazol-6-yl)acetic acid] | 9.19 µM | 0.15 µM | 6.81 µM | –
10 | Cc1cc2nc(-c3ccc4c(c3)c(N3CC5CC(C3)N5C)nn4C)sc2c(-c2ccc(Cl)cc2)c1[C@H](OC(C)(C)C)C(=O)O [Compound 101, (2S)-2-(tert-butoxy)-2-(7-(4-chlorophenyl)-5-methyl-2-(1-methyl-3-(6-methyl-3,6-diazabicyclo[3.1.1]heptan-3-yl)-1H-indazol-5-yl)benzo[d]thiazol-6-yl)acetic Acid] | 57 µM | – | 57 µM | 0.058 µM
11 | COC(=O)N(C)C1CN(c2nn(C)c3ccc(-c4nc5cc(C)c([C@H](OC(C)(C)C)C(=O)O)c(-c6ccc(Cl)cc6)c5s4)cc23)C1 [Compound 102, (S)-2-(tert-butoxy)-2-(7-(4-chlorophenyl)-2-(3-(3-((methoxycarbonyl)(methyl)amino)azetidin-1-yl)-1-methyl-1H-indazol-5-yl)-5-methylbenzo[d]thiazol-6-yl)acetic acid] | 1.27 µM | 0.013 µM | 0.934 µM | –
12 | Cc1cc2nc(-c3ccc4c(c3)c(N3CCN(C5COC5)CC3)nn4C)sc2c(-c2ccc(Cl)cc2)c1[C@H](OC(C)(C)C)C(=O)O [Compound 104, (S)-2-(tert-butoxy)-2-(7-(4-chlorophenyl)-5-methyl-2-(1-methyl-3-(4-(oxetan-3-yl)piperazin-1-yl)-1H-indazol-5-yl)benzo[d]thiazol-6-yl)acetic acid] | 0.904 µM | 0.011 µM | 0.491 µM | –
13 | Cc1cc2nc(-c3cnc4c(c3)c(C3=CCN(C)CC3)cn4C)sc2c(-c2ccc(Cl)cc2)c1[C@H](OC(C)(C)C)C(=O)O [Compound 105, (S)-2-(tert-butoxy)-2-(7-(4-chlorophenyl)-5-methyl-2-(1-methyl-3-(1-methyl-1,2,3,6-tetrahydropyridin-4-yl)-1H-pyrrolo[2,3-b]pyridin-5-yl)benzo[d]thiazol-6-yl)acetic acid] | 2.29 µM | 0.035 µM | 1.46 µM | –
14 | Cc1cc2nc(-c3cnc4c(c3)c(C3CCN(C)CC3)cn4C)sc2c(-c2ccc(Cl)cc2)c1[C@H](OC(C)(C)C)C(=O)O [Compound 106, (S)-2-(tert-butoxy)-2-(7-(4-chlorophenyl)-5-methyl-2-(1-methyl-3-(1-methylpiperidin-4-yl)-1H-pyrrolo[2,3-b]pyridin-5-yl)benzo[d]thiazol-6-yl)acetic acid] | 3.08 µM | 0.029 µM | 0.864 µM | –
15 | Cc1cc2nc(-c3cnc4c(c3)c(N3CCN(C)CC3)cn4C)sc2c(-c2ccc(Cl)cc2)c1[C@H](OC(C)(C)C)C(=O)O [Compound 107, (S)-2-(tert-butoxy)-2-(7-(4-chlorophenyl)-5-methyl-2-(1-methyl-3-(4-methylpiperazin-1-yl)-1H-pyrrolo[2,3-b]pyridin-5-yl)benzo[d]thiazol-6-yl)acetic acid] | 2.37 µM | 0.023 µM | 1.11 µM | –
16 | Cc1cc2nc(-c3ccn4ncc(C5CCN(C6COC6)CC5)c4n3)sc2c(-c2ccc(Cl)cc2)c1[C@H](OC(C)(C)C)C(=O)O [Compound 109, (S)-2-(tert-butoxy)-2-(7-(4-chlorophenyl)-5-methyl-2-(3-(1-(oxetan-3-yl)piperidin-4-yl)pyrazolo[1,5-a]pyrimidin-5-yl)benzo[d]thiazol-6-yl)acetic acid] | 0.614 µM | 0.003 µM | 0.205 µM | –
17 | COC(=O)N1CC(N2CCC(c3cnn4ccc(-c5nc6cc(C)c([C@H](OC(C)(C)C)C(=O)O)c(-c7ccc(Cl)cc7)c6s5)nc34)CC2)C1 [Compound 110, (S)-2-(tert-butoxy)-2-(7-(4-chlorophenyl)-2-(3-(1-(1-(methoxycarbonyl)azetidin-3-yl)piperidin-4-yl)pyrazolo[1,5-a]pyrimidin-5-yl)-5-methylbenzo[d]thiazol-6-yl)acetic acid] | 0.559 µM | 0.002 µM | 0.198 µM | –
18 | Cc1cc2nc(-c3cnc4c(c3)c(N3CCN(C(C)C)CC3)nn4C)sc2c(-c2ccc(Cl)cc2)c1[C@H](OC(C)(C)C)C(=O)O [Compound 111, (S)-2-(tert-butoxy)-2-(7-(4-chlorophenyl)-2-(3-(4-isopropylpiperazin-1-yl)-1-methyl-1H-pyrazolo[3,4-b]pyridin-5-yl)-5-methylbenzo[d]thiazol-6-yl)acetic acid] | 2.88 µM | 0.005 µM | 1.15 µM | –
19 | Cc1cc2nc(-c3cnc4c(c3)c(N3CCN(C5COC5)CC3)nn4C)sc2c(-c2ccc(Cl)cc2)c1[C@H](OC(C)(C)C)C(=O)O [Compound 112, (S)-2-(tert-butoxy)-2-(7-(4-chlorophenyl)-5-methyl-2-(1-methyl-3-(4-(oxetan-3-yl)piperazin-1-yl)-1H-pyrazolo[3,4-b]pyridin-5-yl)benzo[d]thiazol-6-yl)acetic Acid] | 2.11 µM | 0.01 µM | 1.25 µM | –
20 | Cc1cc2nc(-c3cnc4c(c3)c(C3CCN(C5COC5)CC3)nn4C)sc2c(-c2ccc(Cl)cc2)c1[C@H](OC(C)(C)C)C(=O)O [Compound 113, (S)-2-(tert-butoxy)-2-(7-(4-chlorophenyl)-5-methyl-2-(1-methyl-3-(1-(oxetan-3-yl)piperidin-4-yl)-1H-pyrazolo[3,4-b]pyridin-5-yl)benzo[d]thiazol-6-yl)acetic acid] | 1.52 µM | 0.005 µM | 0.871 µM | –
